Data taken from patent publication US20100041089A1, “IMPROVED METHOD FOR DETECTING CHEMICAL […]” (priority 2006, published 2010).

Test system: yeast genes (expressed mRNA)
Assay: DNA chip measurement of expressed mRNA of yeast genes after culture with a toxic chemical substance
Assay type: cell-based, Saccharomyces cerevisiae S288C
Conditions: for level of expressed mRNA in the presence of chemical substance / level in the absence of chemical substance: cultured two hours with the chemical substance; for The level of expressed mRNA in the presence of chemical substance/The level of expressed mRNA in the absence of chemical substance: cultured two hours with substance
Outline: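 Each expression value is the mRNA level in chemical-treated yeast divided by that in untreated yeast, from Cy3/Cy5 fluorescence on a whole-genome chip. Log-phase S288C cells in YPD at 25° C had received a sublethal, growth-inhibiting dose for two hours. Intensity denotes control expression relative to the all-gene mean.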

Na2As [(1)]
0.6: level of expressed mRNA in the presence of chemical substance / level in the absence of chemical substance (yeast gene YBR162C) | level of expressed mRNA in the presence of chemical substance / level in the absence of chemical substance (yeast gene YDR128W)
1.5: The level of expressed mRNA in the presence of chemical substance/The level of expressed mRNA in the absence of chemical substance, yeast gene YDR297W (gene YDR297W, Metabolism protein genes, DNA chip fluorescence ratio) | The level of expressed mRNA in the presence of chemical substance/The level of expressed mRNA in the absence of chemical substance, yeast gene YPL134C (gene YPL134C (mitochondria-located protein gene), yeast cultured two hours with chemical substance, DNA chip fluorescence ratio to control)
1.3: The level of expressed mRNA in the presence of chemical substance/The level of expressed mRNA in the absence of chemical substance, yeast gene YDR079W (gene YDR079W (mitochondria-located protein gene), yeast cultured two hours with chemical substance, DNA chip fluorescence ratio to control) | The level of expressed mRNA in the presence of chemical substance/The level of expressed mRNA in the absence of chemical substance, yeast gene YGR287C (gene YGR287C, Metabolism protein genes, DNA chip fluorescence ratio) | The level of expressed mRNA in the presence of chemical substance/The level of expressed mRNA in the absence of chemical substance, yeast gene YJL070C (gene YJL070C, Metabolism protein genes, DNA chip fluorescence ratio) | level of expressed mRNA in the presence of chemical substance / level in the absence of chemical substance (yeast gene YCL056C) | The level of expressed mRNA in the presence of chemical substance/The level of expressed mRNA in the absence of chemical substance (yeast gene YDL072C)
2.0: level of expressed mRNA in the presence of chemical substance / level in the absence of chemical substance (yeast gene YAL018C) | The level of expressed mRNA in the presence of chemical substance/The level of expressed mRNA in the absence of chemical substance (yeast gene YBL048W)
1.1: The level of expressed mRNA in the presence of chemical substance/The level of expressed mRNA in the absence of chemical substance, yeast gene YBR298C (gene YBR298C, Metabolism protein genes, DNA chip fluorescence ratio) | The level of expressed mRNA in the presence of chemical substance/The level of expressed mRNA in the absence of chemical substance, yeast gene YNR072W (gene YNR072W, Metabolism protein genes, DNA chip fluorescence ratio) | The level of expressed mRNA in the presence of chemical substance/The level of expressed mRNA in the absence of chemical substance, yeast gene YOL096C (gene YOL096C, Metabolism protein genes, DNA chip fluorescence ratio) | The level of expressed mRNA in the presence of chemical substance/The level of expressed mRNA in the absence of chemical substance, yeast gene YPL040C (gene YPL040C (mitochondria-located protein gene), yeast cultured two hours with chemical substance, DNA chip fluorescence ratio to control) | level of expressed mRNA in the presence of chemical substance / level in the absence of chemical substance (yeast gene YAR047C)
1.4: The level of expressed mRNA in the presence of chemical substance/The level of expressed mRNA in the absence of chemical substance, yeast gene YLR295C (gene YLR295C (mitochondria-located protein gene), yeast cultured two hours with chemical substance, DNA chip fluorescence ratio to control) | The level of expressed mRNA in the presence of chemical substance/The level of expressed mRNA in the absence of chemical substance, yeast gene YMR023C (gene YMR023C (mitochondria-located protein gene), yeast cultured two hours with chemical substance, DNA chip fluorescence ratio to control) | The level of expressed mRNA in the presence of chemical substance/The level of expressed mRNA in the absence of chemical substance (yeast gene YBL107C) | The level of expressed mRNA in the presence of chemical substance/The level of expressed mRNA in the absence of chemical substance (yeast gene YDL204W)
2.2: level of expressed mRNA in the presence of chemical substance / level in the absence of chemical substance (yeast gene YCR007C)
0.7: The level of expressed mRNA in the presence of chemical substance/The level of expressed mRNA in the absence of chemical substance, yeast gene YDL078C (gene YDL078C, Metabolism protein genes, DNA chip fluorescence ratio) | The level of expressed mRNA in the presence of chemical substance/The level of expressed mRNA in the absence of chemical substance, yeast gene YGL035C (gene YGL035C, Metabolism protein genes, DNA chip fluorescence ratio) | The level of expressed mRNA in the presence of chemical substance/The level of expressed mRNA in the absence of chemical substance, yeast gene YMR278W (gene YMR278W, Metabolism protein genes, DNA chip fluorescence ratio) | The level of expressed mRNA in the presence of chemical substance/The level of expressed mRNA in the absence of chemical substance, yeast gene YOR316C (gene YOR316C (mitochondria-located protein gene), yeast cultured two hours with chemical substance, DNA chip fluorescence ratio to control)
2.1: level of expressed mRNA in the presence of chemical substance / level in the absence of chemical substance (yeast gene YAR064W)
0.9: The level of expressed mRNA in the presence of chemical substance/The level of expressed mRNA in the absence of chemical substance, yeast gene YGR062C (gene YGR062C (mitochondria-located protein gene), yeast cultured two hours with chemical substance, DNA chip fluorescence ratio to control) | The level of expressed mRNA in the presence of chemical substance/The level of expressed mRNA in the absence of chemical substance, yeast gene YJL180C (gene YJL180C (mitochondria-located protein gene), yeast cultured two hours with chemical substance, DNA chip fluorescence ratio to control) | The level of expressed mRNA in the presence of chemical substance/The level of expressed mRNA in the absence of chemical substance, yeast gene YLR375W (gene YLR375W, Metabolism protein genes, DNA chip fluorescence ratio) | The level of expressed mRNA in the presence of chemical substance/The level of expressed mRNA in the absence of chemical substance, yeast gene YMR293C (gene YMR293C, Metabolism protein genes, DNA chip fluorescence ratio) | The level of expressed mRNA in the presence of chemical substance/The level of expressed mRNA in the absence of chemical substance (yeast gene YAL053W) | level of expressed mRNA in the presence of chemical substance / level in the absence of chemical substance (yeast gene YBL044W) | level of expressed mRNA in the presence of chemical substance / level in the absence of chemical substance (yeast gene YBR124W) | The level of expressed mRNA in the presence of chemical substance/The level of expressed mRNA in the absence of chemical substance (yeast gene YDL222C) | level of expressed mRNA in the presence of chemical substance / level in the absence of chemical substance (yeast gene YDR090C)
1.2: The level of expressed mRNA in the presence of chemical substance/The level of expressed mRNA in the absence of chemical substance, yeast gene YPR184W (gene YPR184W, Metabolism protein genes, DNA chip fluorescence ratio) | level of expressed mRNA in the presence of chemical substance / level in the absence of chemical substance (yeast gene YDL046W)
0.8: The level of expressed mRNA in the presence of chemical substance/The level of expressed mRNA in the absence of chemical substance, yeast gene YBR036C (gene YBR036C, Metabolism protein genes, DNA chip fluorescence ratio) | The level of expressed mRNA in the presence of chemical substance/The level of expressed mRNA in the absence of chemical substance, yeast gene YDR387C (gene YDR387C, Metabolism protein genes, DNA chip fluorescence ratio) | The level of expressed mRNA in the presence of chemical substance/The level of expressed mRNA in the absence of chemical substance, yeast gene YMR267W (gene YMR267W (mitochondria-located protein gene), yeast cultured two hours with chemical substance, DNA chip fluorescence ratio to control) | The level of expressed mRNA in the presence of chemical substance/The level of expressed mRNA in the absence of chemical substance, yeast gene YMR267W (gene YMR267W, Metabolism protein genes, DNA chip fluorescence ratio) | The level of expressed mRNA in the presence of chemical substance/The level of expressed mRNA in the absence of chemical substance, yeast gene YNL073W (gene YNL073W (mitochondria-located protein gene), yeast cultured two hours with chemical substance, DNA chip fluorescence ratio to control) | The level of expressed mRNA in the presence of chemical substance/The level of expressed mRNA in the absence of chemical substance, yeast gene YOR180C (gene YOR180C, Metabolism protein genes, DNA chip fluorescence ratio) | The level of expressed mRNA in the presence of chemical substance/The level of expressed mRNA in the absence of chemical substance, yeast gene YOR363C (gene YOR363C, Metabolism protein genes, DNA chip fluorescence ratio)
1.8: The level of expressed mRNA in the presence of chemical substance/The level of expressed mRNA in the absence of chemical substance, yeast gene YDL067C (gene YDL067C (mitochondria-located protein gene), yeast cultured two hours with chemical substance, DNA chip fluorescence ratio to control)
1.7: level of expressed mRNA in the presence of chemical substance / level in the absence of chemical substance (yeast gene YBR287W)
1.9: level of expressed mRNA in the presence of chemical substance / level in the absence of chemical substance (yeast gene YBR066C)
1.0: The level of expressed mRNA in the presence of chemical substance/The level of expressed mRNA in the absence of chemical substance, yeast gene YDL215C (gene YDL215C, Metabolism protein genes, DNA chip fluorescence ratio) | The level of expressed mRNA in the presence of chemical substance/The level of expressed mRNA in the absence of chemical substance, yeast gene YJL096W (gene YJL096W (mitochondria-located protein gene), yeast cultured two hours with chemical substance, DNA chip fluorescence ratio to control) | The level of expressed mRNA in the presence of chemical substance/The level of expressed mRNA in the absence of chemical substance, yeast gene YKR009C (gene YKR009C, Metabolism protein genes, DNA chip fluorescence ratio) | The level of expressed mRNA in the presence of chemical substance/The level of expressed mRNA in the absence of chemical substance, yeast gene YLR351C (gene YLR351C, Metabolism protein genes, DNA chip fluorescence ratio)
2.5: level of expressed mRNA in the presence of chemical substance / level in the absence of chemical substance (yeast gene YBR012C)
